{"source": "patent US4156016A", "about": "“Indole compounds and process for their preparation” (Hoffmann-La Roche Inc., priority 1977, dated 1979)", "key": {"[1]": {"tested_on": "Collagen-Induced Platelet Aggregation", "experiment": "Inhibition of collagen-induced platelet aggregation in human platelet-rich plasma", "format": "cell-based", "conditions": "for inhibition at 2.5 µM / inhibition at 5 µM / inhibition at 15 µM / inhibition at 25 µM / inhibition at 50 µM: read-out: Percent Inhibition", "experimental": "(§1) Venous blood was collected from human volunteers in siliconized 20 ml. […] Platelet rich plasma (PRP) was separated from the red blood cells by centrifugation at 180×g for 15 minutes at room temperature. Platelet poor plasma (PPP) was prepared by centrifuging PRP at 1000×g for 2 minutes.\n(§2) Techniques established by Born et al., J. Physiol. […] PRP (1 ml.) was added to a siliconized cuvette containing a siliconized stirring bar and placed in a densitometer maintained at 37° C. and stirred at 1000 RPM. Various concentrations of test compounds were added in 50 μl of saline and incubated with PRP for 5 minutes. Aggregation was initiated by the addition of sufficient concentrations of ADP (Sigma Chemical Co.), epinephrine HCl (Parke, Davis & Co., Detroit, Michigan), or human mammary gland collagen (obtained from Roosevelt Hospital, N.Y.) to give about 60% of maximum aggregation response. The light transmission through PPP was used to determine maximum response. The percent inhibition of aggregation caused by the drug was calculated from the strip chart recordings at the point of maximum collagen response."}, "[2]": {"tested_on": "human blood-platelet aggregation", "experiment": "Inhibition of human blood-platelet aggregation (general statement)"}, "Prostaglandin synthetase": {"target": "T1, Prostaglandin synthetase (Ovis aries, UniProt P05979)", "T1 construct": "from tissue", "T1 sequence (P05979 25-600)": "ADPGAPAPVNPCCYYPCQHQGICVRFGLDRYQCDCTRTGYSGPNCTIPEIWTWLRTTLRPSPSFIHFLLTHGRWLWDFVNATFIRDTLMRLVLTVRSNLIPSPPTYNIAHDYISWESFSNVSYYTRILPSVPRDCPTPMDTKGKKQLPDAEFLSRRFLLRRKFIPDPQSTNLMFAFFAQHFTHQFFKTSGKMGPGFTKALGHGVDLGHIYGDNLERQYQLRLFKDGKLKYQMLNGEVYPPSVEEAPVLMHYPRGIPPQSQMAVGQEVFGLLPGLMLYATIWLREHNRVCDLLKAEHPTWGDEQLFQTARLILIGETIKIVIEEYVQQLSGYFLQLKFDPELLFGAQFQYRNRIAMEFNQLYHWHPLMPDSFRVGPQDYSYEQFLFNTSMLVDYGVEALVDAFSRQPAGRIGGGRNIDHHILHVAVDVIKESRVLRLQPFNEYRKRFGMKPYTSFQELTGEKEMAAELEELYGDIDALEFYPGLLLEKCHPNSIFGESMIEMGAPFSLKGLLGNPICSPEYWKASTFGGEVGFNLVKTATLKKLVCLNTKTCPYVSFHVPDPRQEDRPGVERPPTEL", "experiment": "Prostaglandin synthetase inhibition", "format": "biochemical", "conditions": "read-out: PG synthetase IC50"}, "prostaglandin formation": {"tested_on": "prostaglandin formation", "experiment": "Inhibition of prostaglandin formation (general statement)"}, "[3]": {"tested_on": "Epinephrine induced aggregation", "experiment": "Inhibition of epinephrine-induced platelet aggregation (second wave) in human platelet-rich plasma", "format": "cell-based", "conditions": "for inhibition at 10 µM / inhibition at 20 µM / inhibition at 25 µM / inhibition at 50 µM / inhibition at 100 µM: Homo sapiens, Platelet, read-out: Percent Inhibition", "experimental": "as §1, §2"}, "[4]": {"tested_on": "arachidonic acid induced diarrhea", "experiment": "Arachidonic acid diarrhea prevention (mice)", "format": "in vivo, Carworth Farm CF-1 male mice", "conditions": "Mus musculus, po", "experimental": "Carworth Farm CF-1 male mice weighing 18-20 grams were administered the test compound by either the oral or intraperitoneal route one hour prior to the intraperitoneal administration of 4 mg/kg of arachidonic acid (Hoffmann-La Roche Inc.). […] The diarrhea was graded on paper towels as follows: 0=solid pellet or no bowel movement; 1=slightly soft pellet with little or no wet ring formation; 2=moderately soft pellet with definite wet ring formation; 3=soft pellet with large wet ring formation; and 4=amorphous pellet with very large wet ring formation.\nThe calculation of the ED50 was made according to the method of Miller et al., Proc. Soc."}, "Acute toxicity in mice": {"experiment": "Acute toxicity in mice", "conditions": "mouse, in vivo", "experimental": "CF-IS mice of both sexes weighing 17-25 grams were used. The compounds were ground in a mortar and suspended in 5% gum acacia for oral or intraperitoneal administration. Eight to ten mice were used per dose level. […] The LD50 was calculated by the method of Miller et al., Proc. Soc. Exp. Biol. Med., 57, pages 261-264 (1944)."}, "[5]": {"experiment": "Central and peripheral pharmacological activity (statement)"}}, "note": "Like-named read-outs stand apart in the source and are kept apart here.", "data": [{"smiles": "N#Cc1[nH]c2ccc(C(O)(C(F)(F)F)C(F)(F)F)cc2c1-c1ccccc1", "note": "[nitrile, 3-Phenyl-5-[2,2,2-trifluoro-1-hydroxy-1-(trifluoromethyl)ethyl]indole-2-carbonitrile]", "values": [{"measurement": "Δ light transmission", "setting": "[1]; 2.5 μM, Expt. I", "value": 49, "unit": "units"}, {"measurement": "Δ light transmission", "setting": "[1]; 2.5 μM, Expt. II", "value": 50, "unit": "units"}, {"measurement": "Δ light transmission", "setting": "[1]; 5 μM, Expt. I", "value": 24, "unit": "units"}, {"measurement": "Δ light transmission", "setting": "[1]; 5 μM, Expt. II", "value": 20, "unit": "units"}, {"measurement": "Δ light transmission", "setting": "[1]; 15 μM, Expt. I", "value": 8, "unit": "units"}, {"measurement": "Δ light transmission", "setting": "[1]; 15 μM, Expt. II", "value": 7, "unit": "units"}, {"measurement": "Δ light transmission", "setting": "[1]; 25 μM, Expt. I", "value": 5, "unit": "units"}, {"measurement": "Δ light transmission", "setting": "[1]; 25 μM, Expt. II", "value": 5, "unit": "units"}, {"measurement": "Δ light transmission", "setting": "[1]; 50 μM, Expt. I", "value": 4, "unit": "units"}, {"measurement": "Δ light transmission", "setting": "[1]; 50 μM, Expt. II", "value": 3, "unit": "units"}, {"measurement": "inhibition at 2.5 µM", "setting": "[1]; Homo sapiens, Platelet, 2.5 μM, Expt. I", "value": 24.6, "unit": "%"}, {"measurement": "inhibition at 2.5 µM", "setting": "[1]; Homo sapiens, Platelet, 2.5 μM, Expt. II", "value": 16.7, "unit": "%"}, {"measurement": "inhibition at 5 µM", "setting": "[1]; Homo sapiens, Platelet, 5 μM, Expt. I", "value": 63.1, "unit": "%"}, {"measurement": "inhibition at 5 µM", "setting": "[1]; Homo sapiens, Platelet, 5 μM, Expt. II", "value": 66.6, "unit": "%"}, {"measurement": "inhibition at 15 µM", "setting": "[1]; Homo sapiens, Platelet, 15 μM, Expt. I", "value": 87.7, "unit": "%"}, {"measurement": "inhibition at 15 µM", "setting": "[1]; Homo sapiens, Platelet, 15 μM, Expt. II", "value": 88.3, "unit": "%"}, {"measurement": "inhibition at 25 µM", "setting": "[1]; Homo sapiens, Platelet, 25 μM, Expt. I", "value": 92.4, "unit": "%"}, {"measurement": "inhibition at 25 µM", "setting": "[1]; Homo sapiens, Platelet, 25 μM, Expt. II", "value": 91.6, "unit": "%"}, {"measurement": "inhibition at 50 µM", "setting": "[1]; Homo sapiens, Platelet, 50 μM, Expt. I", "value": 93.8, "unit": "%"}, {"measurement": "inhibition at 50 µM", "setting": "[1]; Homo sapiens, Platelet, 50 μM, Expt. II", "value": 95, "unit": "%"}, {"measurement": "IC50", "setting": "[1]; Homo sapiens, Platelet, Table 7, read-out: Inhibition of collagen-induced platelet aggregation, Activity IC50", "value": 3.5, "unit": "µM"}, {"measurement": "IC50", "setting": "[1]; incubation in human citrated platelet-rich plasma, read-out: IC50 collagen", "value": 3.5, "unit": "µM"}, {"measurement": "inhibition of human blood-platelet aggregation (in words)", "setting": "[2]", "value": "inhibit prostaglandin formation and human blood-platelet aggregation"}, {"measurement": "IC50", "setting": "Prostaglandin synthetase", "value": 0.5, "unit": "µM"}, {"measurement": "inhibition of prostaglandin formation (in words)", "setting": "prostaglandin formation", "value": "inhibit prostaglandin formation"}, {"measurement": "Δ light transmission", "setting": "[3]; 10 μM, Expt. I", "value": 45, "unit": "units"}, {"measurement": "Δ light transmission", "setting": "[3]; 10 μM, Expt. II", "value": 47, "unit": "units"}, {"measurement": "Δ light transmission", "setting": "[3]; 20 μM, Expt. I", "value": 30, "unit": "units"}, {"measurement": "Δ light transmission", "setting": "[3]; 20 μM, Expt. II", "value": 34, "unit": "units"}, {"measurement": "Δ light transmission", "setting": "[3]; 25 μM, Expt. I", "value": 25, "unit": "units"}, {"measurement": "Δ light transmission", "setting": "[3]; 25 μM, Expt. II", "value": 30, "unit": "units"}, {"measurement": "Δ light transmission", "setting": "[3]; 50 μM, Expt. I", "value": 18, "unit": "units"}, {"measurement": "Δ light transmission", "setting": "[3]; 50 μM, Expt. II", "value": 14, "unit": "units"}, {"measurement": "Δ light transmission", "setting": "[3]; 100 μM, Expt. I", "value": 11, "unit": "units"}, {"measurement": "Δ light transmission", "setting": "[3]; 100 μM, Expt. II", "value": 9, "unit": "units"}, {"measurement": "inhibition at 10 µM", "setting": "[3]; 10 μM, Expt. I", "value": 0, "unit": "%"}, {"measurement": "inhibition at 10 µM", "setting": "[3]; 10 μM, Expt. II", "value": 6, "unit": "%"}, {"measurement": "inhibition at 20 µM", "setting": "[3]; 20 μM, Expt. I", "value": 33.3, "unit": "%"}, {"measurement": "inhibition at 20 µM", "setting": "[3]; 20 μM, Expt. II", "value": 32, "unit": "%"}, {"measurement": "inhibition at 25 µM", "setting": "[3]; 25 μM, Expt. I", "value": 44.4, "unit": "%"}, {"measurement": "inhibition at 25 µM", "setting": "[3]; 25 μM, Expt. II", "value": 40, "unit": "%"}, {"measurement": "inhibition at 50 µM", "setting": "[3]; 50 μM, Expt. I", "value": 60, "unit": "%"}, {"measurement": "inhibition at 50 µM", "setting": "[3]; 50 μM, Expt. II", "value": 71, "unit": "%"}, {"measurement": "inhibition at 100 µM", "setting": "[3]; 100 μM, Expt. I", "value": 75, "unit": "%"}, {"measurement": "inhibition at 100 µM", "setting": "[3]; 100 μM, Expt. II", "value": 82, "unit": "%"}, {"measurement": "IC50", "setting": "[3]; incubation in human citrated platelet-rich plasma", "value": 40, "unit": "µM"}, {"measurement": "ED50", "setting": "[4]", "value": 5, "unit": "mg/kg"}, {"measurement": "LD50 at 120 h", "setting": "Acute toxicity in mice; ip", "value": 750, "unit": "mg/kg"}, {"measurement": "LD50 at 120 h", "setting": "Acute toxicity in mice; po", "value": "> 1000", "unit": "mg/kg"}, {"measurement": "central and peripheral pharmacological activity (in words)", "setting": "[5]", "value": "devoid of central and peripheral pharmacological activity"}]}]}
